Experimental findings from the Biogen ADME set (Fang et al. 2023) are described below.

Values after ≈ are worked out from the molar mass of the structure shown.

The conditions of this data set: for aqueous solubility: pH 6.8.

As usually defined, the aqueous solubility is the concentration that dissolves in the medium under given conditions. A high value points to a readily soluble substance. As for `O[C@@H]1CCCC[C@H]1N1CCC(c2ccccc2)CC1`, the MDR1-MDCK efflux ratio came to 0.462; the intrinsic clearance, human liver microsomes was no more than 4.74 mL/min/kg; the intrinsic clearance, rat liver microsomes was determined as 1390 mL/min/kg; the aqueous solubility was 46.5 µg/mL (≈ 179 µM).

As for `Cc1csc(CN(C)c2ccnc(N(C)C)n2)n1`, the MDR1-MDCK efflux ratio amounted to 0.578; the intrinsic clearance, human liver microsomes worked out at 11.8 mL/min/kg; the intrinsic clearance, rat liver microsomes stood at 546 mL/min/kg; the aqueous solubility stood at 45.8 µg/mL (≈ 174 µM).

Regarding `COc1cccc(/C=C2/N=C(c3ccccc3C)NC2=O)c1OC`, the aqueous solubility was 0.35 µg/mL (≈ 1.09 µM).

With `CCCN(CC)c1ccc(C(=O)N2CCCN(C(C)=O)CC2)cc1`, the MDR1-MDCK efflux ratio amounted to 6.92; the intrinsic clearance, human liver microsomes worked out at 25.7 mL/min/kg; the intrinsic clearance, rat liver microsomes was found to be 308 mL/min/kg; the aqueous solubility worked out at 48.4 µg/mL (≈ 146 µM).

As to `CN(C)c1nc(-c2cccc(-c3ccccc3)c2)n[nH]1`, the aqueous solubility came to 0.81 µg/mL (≈ 3.06 µM).

As to `CCN1CCC(Nc2ncnc3c2cnn3C)CC1`, the MDR1-MDCK efflux ratio turned out to be 4.01; the intrinsic clearance, human liver microsomes came to 63.4 mL/min/kg; the intrinsic clearance, rat liver microsomes came to 21.9 mL/min/kg; the aqueous solubility is 32.5 µg/mL (≈ 125 µM).

For the compound `CC[C@@H]1C(=O)N(C)c2cnc(-n3ccnc3-c3ccc(F)cc3)nc2N1c1ccn(C)n1`, the MDR1-MDCK efflux ratio worked out at 14.2; the intrinsic clearance, human liver microsomes amounted to 43.7 mL/min/kg; the intrinsic clearance, rat liver microsomes was 413 mL/min/kg.

Take `C=CCn1c(=O)c2cnc(Nc3ccc(N4CCN(C)CC4)cc3)nc2n1-c1cccc(C(C)(C)O)n1`: the MDR1-MDCK efflux ratio turned out to be 63.4; the intrinsic clearance, human liver microsomes is 32.7 mL/min/kg; the intrinsic clearance, rat liver microsomes was found to be 67.9 mL/min/kg.

`C[C@@H](CN1CCC2(CC1)C(=O)NCN2c1cccc(F)c1)NC(=O)c1ccc(Br)cc1` gave an intrinsic clearance, human liver microsomes of 88.8 mL/min/kg; an intrinsic clearance, rat liver microsomes of 312 mL/min/kg; an aqueous solubility of 3.85 µg/mL (≈ 7.87 µM).

Regarding `Cc1cnc(CNCc2cccc3c2OCO3)s1`, the MDR1-MDCK efflux ratio came to 0.607; the intrinsic clearance, human liver microsomes is 33 mL/min/kg; the intrinsic clearance, rat liver microsomes was determined as 204 mL/min/kg; the aqueous solubility was 34.9 µg/mL (≈ 133 µM).

Compound `COc1cc2cc(N)c(C3CCNCC3)nc2cc1OC` displayed an intrinsic clearance, human liver microsomes of no more than 4.74 mL/min/kg and an intrinsic clearance, rat liver microsomes of no more than 10.7 mL/min/kg.

Compound `C[C@H](Cn1nc2c(cc1=O)CCCCC2)NC(=O)Cc1cccs1` displayed an intrinsic clearance, human liver microsomes of 153 mL/min/kg and an intrinsic clearance, rat liver microsomes of 817 mL/min/kg.

For the compound `Clc1cccc(CNc2nc(C3CC3)no2)c1`, the MDR1-MDCK efflux ratio amounted to 0.476; the intrinsic clearance, human liver microsomes was 22 mL/min/kg; the intrinsic clearance, rat liver microsomes is 165 mL/min/kg; the aqueous solubility came out at 29.3 µg/mL (≈ 117 µM).

Take `Nc1ncnc2c1c(-c1cnc3[nH]ccc3c1)nn2C1CCCC1`: the MDR1-MDCK efflux ratio amounted to 6.9; the fraction unbound, human plasma worked out at 0.0729; the fraction unbound, rat plasma came out at 0.0603; the intrinsic clearance, human liver microsomes stood at 101 mL/min/kg. For the same compound, the intrinsic clearance, rat liver microsomes came to 1210 mL/min/kg.

Compound `O=C1CSc2ccc(C(=O)Nc3cc(C4CC4)n[nH]3)cc2N1` showed an intrinsic clearance, human liver microsomes of 8.23 mL/min/kg; an intrinsic clearance, rat liver microsomes of 241 mL/min/kg; an aqueous solubility of 4.31 µg/mL (≈ 13.7 µM).

`O=C(CSc1ccccn1)N1CCSc2ccccc21`: the MDR1-MDCK efflux ratio stood at 0.586; the intrinsic clearance, human liver microsomes amounted to 426 mL/min/kg; the intrinsic clearance, rat liver microsomes came out at 6400 mL/min/kg.

Turning to `COc1cc(OC)cc(N(CCNC(C)C)c2ccc3ncc(-c4cnn(C)c4)nc3c2)c1`, the MDR1-MDCK efflux ratio is 106; the intrinsic clearance, human liver microsomes came to 17.6 mL/min/kg; the intrinsic clearance, rat liver microsomes was 790 mL/min/kg.

On to `COCC1(CNS(=O)(=O)c2ccc3[nH]cnc3c2)CCC1`, for which the MDR1-MDCK efflux ratio was 32.8; the intrinsic clearance, human liver microsomes was found to be 16.2 mL/min/kg; the intrinsic clearance, rat liver microsomes came to 860 mL/min/kg.

For the compound `CCOC(=O)N1CCC(Nc2nc3ccccc3s2)CC1`, the MDR1-MDCK efflux ratio was found to be 0.812; the intrinsic clearance, human liver microsomes was found to be 8.22 mL/min/kg; the intrinsic clearance, rat liver microsomes is 294 mL/min/kg; the aqueous solubility was 49.2 µg/mL (≈ 161 µM).

As for `COc1ccc(CCCN2CCN(c3cnn(C)c3)C(=O)C2)cc1F`, the MDR1-MDCK efflux ratio came out at 0.734; the fraction unbound, human plasma is 0.221; the fraction unbound, rat plasma came to 0.203; the intrinsic clearance, human liver microsomes is no more than 4.74 mL/min/kg. Also, the intrinsic clearance, rat liver microsomes came out at 44.1 mL/min/kg.

Take `Cn1cc(C#N)cc1-c1nc(C2CC2)nn1CCc1ccccc1`: the MDR1-MDCK efflux ratio was found to be 0.932; the intrinsic clearance, human liver microsomes was determined as 184 mL/min/kg; the intrinsic clearance, rat liver microsomes came out at 1870 mL/min/kg; the aqueous solubility came out at 49.2 µg/mL (≈ 155 µM).

Turning to `Cc1cccc(C(=O)NCC#Cc2ccccc2)n1`, the MDR1-MDCK efflux ratio came to 0.421; the intrinsic clearance, human liver microsomes stood at 38.2 mL/min/kg; the intrinsic clearance, rat liver microsomes was found to be 557 mL/min/kg; the aqueous solubility stood at 29.7 µg/mL (≈ 119 µM).

As for `Cc1ccc(C(=O)Nc2ncccc2C)s1`, the MDR1-MDCK efflux ratio is 0.664; the intrinsic clearance, human liver microsomes amounted to 6.72 mL/min/kg; the intrinsic clearance, rat liver microsomes came to 34.6 mL/min/kg; the aqueous solubility turned out to be 37.8 µg/mL (≈ 163 µM).

On to `COc1cccc(OC)c1-c1cc(C(=O)N[C@@H](CC(C)C)C(=O)O)nn1-c1ccnc2cc(Cl)ccc12`, for which the MDR1-MDCK efflux ratio is 39.1; the intrinsic clearance, human liver microsomes amounted to 9.49 mL/min/kg; the intrinsic clearance, rat liver microsomes turned out to be 108 mL/min/kg; the aqueous solubility was found to be 90.4 µg/mL (≈ 173 µM).

For `CC(C)(C)C(=O)N1CCC(NS(C)(=O)=O)CC1`, the MDR1-MDCK efflux ratio was 1.89; the intrinsic clearance, human liver microsomes is no more than 4.74 mL/min/kg; the intrinsic clearance, rat liver microsomes is no more than 10.7 mL/min/kg; the aqueous solubility worked out at 56.9 µg/mL (≈ 217 µM).

Regarding `Cc1cn[nH]c1C1(C)CCN(Cc2cnn(C)c2)CC1`, the MDR1-MDCK efflux ratio amounted to 22.6; the intrinsic clearance, human liver microsomes is no more than 4.74 mL/min/kg; the intrinsic clearance, rat liver microsomes is 79.1 mL/min/kg; the aqueous solubility came out at 28.4 µg/mL (≈ 104 µM).

With `CC1(C(=O)O)CCN(Cc2ccccc2)CC1`, the intrinsic clearance, human liver microsomes was no more than 4.74 mL/min/kg; the intrinsic clearance, rat liver microsomes is no more than 10.7 mL/min/kg; the aqueous solubility was found to be 44.9 µg/mL (≈ 193 µM).

As for `Cc1ccc(C(=O)C(=O)NC2CCCC2)cc1`, the MDR1-MDCK efflux ratio is 0.471; the intrinsic clearance, human liver microsomes turned out to be 104 mL/min/kg; the intrinsic clearance, rat liver microsomes was 465 mL/min/kg; the aqueous solubility is 30.2 µg/mL (≈ 131 µM).

In the case of `O=C(O)c1ccc(N2CCCC2)c(F)c1`, the MDR1-MDCK efflux ratio is 0.865; the intrinsic clearance, human liver microsomes is no more than 4.74 mL/min/kg; the intrinsic clearance, rat liver microsomes came to 14.4 mL/min/kg; the aqueous solubility worked out at 27.3 µg/mL (≈ 130 µM).

Take `CCCCNC(=O)c1ccc2c(c1)nnn2C`: the intrinsic clearance, human liver microsomes is no more than 4.74 mL/min/kg; the intrinsic clearance, rat liver microsomes was no more than 10.7 mL/min/kg; the aqueous solubility worked out at 26 µg/mL (≈ 112 µM).

Compound `N=C(N)NCCCCC(=O)Nc1ccc(C[C@H](NC(=O)[C@@H]2CCCN2S(=O)(=O)c2ccccc2)C(=O)O)cc1` registered an intrinsic clearance, human liver microsomes of no more than 4.74 mL/min/kg and an intrinsic clearance, rat liver microsomes of no more than 10.7 mL/min/kg.

On to `CN1CCN(c2ccc(NC(=O)c3ccccc3Cl)nc2)CC1`, for which the MDR1-MDCK efflux ratio came out at 0.523; the intrinsic clearance, human liver microsomes was no more than 4.74 mL/min/kg; the intrinsic clearance, rat liver microsomes worked out at 349 mL/min/kg; the aqueous solubility came to 45.8 µg/mL (≈ 138 µM).

Turning to `c1ccc2[nH]c(C3CCNCC3)nc2c1`, the aqueous solubility was 56.3 µg/mL (≈ 280 µM).
